Reference: article PMC11990898, “Novel Isatin–Chalcone Hybrid Molecules: Design, Synthesis and Anti-Neuroinflammatory Activity Evaluation” (Molecules, 2025)
pIC50: −log10 of the molar value. Where “and” joins values, the source holds several entries; their conditions need not be identical. Equal entries are not always repeated.

Assays:
Type in all cases: cell-based, mouse
[1] = system: NO release from LPS-stimulated BV2 cells; experiment: NO release inhibition in LPS-stimulated BV2 cells (Griess method); conditions: for Nitrite (NO release amount): BV2 cells induced by LPS, Griess test; for Nitrite (NO release amount) / inhibition at 20 µM: compound at 20 μM; for pIC50 / inhibition at 20 µM: Mus musculus, BV-2, LPS-stimulated BV2 cells; for pIC50: 24 h; for inhibition at 20 µM: read-out: NO inhibition rate
Procedure: BV2 cells stimulated by lipopolysaccharide (LPS) lead to an increase in NO release. Therefore, we used the inhibitory ability of the target compounds on NO as a preliminary method to evaluate their anti-neuroinflammatory properties. We evaluated the inhibitory ability of isatin–chalcone hybrid derivatives 4a–t on the release of NO from BV2 cells at 20 μM. The release amount of NO was detected by the Griess method, and the actual release amount of NO was calculated based on the experimental data.
BV2 cells were plated in 96-well microplates at 40,000 cells per well (100 μL/well) and incubated for 24 h. Then, 50 μL of LPS solution with a final concentration of 100 ng/mL and 50 μL of compounds (diluted with medium to a final concentration of 0.31–20 μM) were added, and each concentration had 3 parallel wells. The NO assay kit was used to carry out nitrite assays after 24 h. The 50 μL of culture medium was mixed with the GrisR1 (50 μL) and GrisR2 (50 μL) of the NO assay kit in another new 96-well plate. The absorbance was detected at 540 nm. The percentage of inhibition of NO was obtained from the following formula: [(Rlps − RB − RC)/(Rlps − RB)] × 100, where Rlps is the release amount of only the LPS-treated group, RB is the release amount of the normal control and RC is the release amount of the test compound and LPS-treated group. The IC50 values of test compounds were calculated by linear regression plots.

[2] = system: BV2 microglial cells; experiment: Cell viability assay (MTS) on BV2 cells; conditions: for pIC50: Mus musculus, BV-2, MTS; for pIC50 / cell viability: 24 h; for cell viability: compound at 25 μM, MTS
Procedure: (§1) BV2 microglial cells (SCSP-5208, Cell Bank, Chinese Academy of Sciences, Shanghai, China) were incubated in high-glucose DMEM supplemented with 10% fetal bovine serum and 1% penicillin and streptomycin in a humidified atmosphere of 5% CO2 at 37 °C.
(§2) BV2 cells were plated in 96-well microplates at 20,000 cells per well (100 μL/well) and incubated for 24 h. Then, 100 μL of compounds (diluted with medium to a final concentration of 1.56–100 μM) was added, and each concentration had 3 parallel wells. After 24 h, the cell viability was measured by MTS assay. The absorbance was detected at 490 nm. The percentage of viability was obtained from the following formula: ODdrug-treated/ODnormal cells × 100. The IC50 values of test compounds were calculated by linear regression plots.

[3] = Cell viability assay (MTS) on BV2 cells; conditions: mouse, BV2 microglial cells, MTS
Procedure: as §1, §2

**Q.** With `CCOC(=O)CN1C(=O)/C(=C/C(=O)C2CC2)c2ccccc21` [Compound 4t, Ethyl (E)-2-(3-(2-cyclopropyl-2-oxoethylidene)-2-oxoindolin-1-yl)acetate] as the compound, how does the “Nitrite (NO release amount)” value [1] read?
**A.** 16.7 ± 0.2 µM

**Q.** With `COC(=O)CN1C(=O)/C(=C/C(=O)c2cc(OC)c(OC)c(OC)c2)c2ccccc21` [Compound 5a, Methyl (E)-2-(2-oxo-3-(2-oxo-2-(3,4,5-trimethoxyphenyl)ethylidene)indolin-1-yl)acetate] as the compound, how does the pIC50 [1] read?
**A.** 4.96

**Q.** What about the pIC50 [2] of the same compound?
**A.** 4.10

**Q.** For `CCOC(=O)CN1C(=O)/C(=C/C(=O)c2ccc(CC)cc2)c2ccccc21` [Compound 4e, Ethyl (E)-2-(3-(2-(4-ethylphenyl)-2-oxoethylidene)-2-oxoindolin-1-yl)acetate], which “Nitrite (NO release amount)” value [1] is on record?
**A.** 15.2 ± 0.3 µM

**Q.** With `CCOC(=O)CN1C(=O)/C(=C/C(=O)c2ccc(-c3ccccc3)cc2)c2ccccc21` [Compound 4o, Ethyl (E)-2-(3-(2-([1,1′-biphenyl]-4-yl)-2-oxoethylidene)-2-oxoindolin-1-yl)acetate] as the compound, how does the “Nitrite (NO release amount)” value [1] read?
**A.** 19.0 ± 0.4 µM

**Q.** And the cell viability [2]?
**A.** nearly non-cytotoxic

**Q.** Which “Nitrite (NO release amount)” value [1] does the source give for `CCOC(=O)CN1C(=O)/C(=C/C(=O)c2ccco2)c2ccccc21` [Compound 4q, Ethyl (E)-2-(3-(2-(furan-2-yl)-2-oxoethylidene)-2-oxoindolin-1-yl)acetate] here?
**A.** 20.2 ± 0.4 µM

**Q.** And the inhibition at 20 µM [1]?
**A.** 30%

**Q.** What about the cell viability [2] of the same compound?
**A.** nearly non-cytotoxic

**Q.** For `O=C1Nc2ccccc2C1=O` [Isatin, 1H-indole-2,3-dione], which “Nitrite (NO release amount)” value [1] is on record?
**A.** 20.8 ± 0.9 µM

**Q.** With `CCOC(=O)CN1C(=O)/C(=C/C(=O)c2ccc(C)cc2)c2ccccc21` [Compound 4d, Ethyl (E)-2-(2-oxo-3-(2-oxo-2-(p-tolyl)ethylidene)indolin-1-yl)acetate] as the compound, how does the “Nitrite (NO release amount)” value [1] read?
**A.** 12.5 ± 0.2 µM

**Q.** Which “Nitrite (NO release amount)” value [1] does the source give for `CCOC(=O)CN1C(=O)/C(=C/C(=O)c2ccc(Cl)cc2)c2ccccc21` [Compound 4l, Ethyl (E)-2-(3-(2-(4-chlorophenyl)-2-oxoethylidene)-2-oxoindolin-1-yl)acetate] here?
**A.** 17.5 ± 0.3 µM

**Q.** With `CCCCCc1ccc(C(=O)/C=C2/C(=O)N(CC(=O)OCC)c3ccccc32)cc1` [Compound 4g, Ethyl (E)-2-(2-oxo-3-(2-oxo-2-(4-pentylphenyl)ethylidene)indolin-1-yl)acetate] as the compound, how does the “Nitrite (NO release amount)” value [1] read?
**A.** 8.5 ± 0.1 µM

**Q.** What about the pIC50 [1] of the same compound?
**A.** 4.97

**Q.** What about the inhibition at 20 µM [1] of the same compound?
**A.** 73%

**Q.** What about the viability at 24 h, 3.1 µM ([3]; compound at 3.1 μM, read-out: cell viability (cell survival rate)) of the same compound?
**A.** 98.4%

**Q.** And the viability at 24 h, 6.3 μM ([3]; compound at 6.3 μM (printed 6.23 μM for 4b), read-out: cell viability (cell survival rate))?
**A.** 95.1%

**Q.** And the viability at 24 h, 12.5 µM ([3]; compound at 12.5 μM)?
**A.** 83.9%

**Q.** And the viability at 24 h, 25 µM ([3]; compound at 25 μM, 24 h)?
**A.** 42%

**Q.** What about the pIC50 [2] of the same compound?
**A.** 4.52

**Q.** What about the cytotoxicity ([2]; under the concentration of 12.5 μM) of the same compound?
**A.** did not show obvious cytotoxicity

**Q.** What does the source list for `CCOC(=O)CN1C(=O)/C(=C/C(=O)c2ccccn2)c2ccccc21` [Compound 4s, Ethyl (E)-2-(2-oxo-3-(2-oxo-2-(pyridin-2-yl)ethylidene)indolin-1-yl)acetate]?
**A.** Nitrite (NO release amount) [1]: 11.1 ± 0.4 µM; cell viability [2]: nearly non-cytotoxic

**Q.** With `CCCCCCCOC(=O)CN1C(=O)/C(=C/C(=O)c2cc(OC)c(OC)c(OC)c2)c2ccccc21` [Compound 5b, Heptyl (E)-2-(2-oxo-3-(2-oxo-2-(3,4,5-trimethoxyphenyl)ethylidene)indolin-1-yl)acetate] as the compound, how does the pIC50 [1] read?
**A.** 4.80

**Q.** What about the pIC50 [2] of the same compound?
**A.** 4.34

**Q.** With `CCOC(=O)CN1C(=O)/C(=C/C(=O)c2ccc(OC)cc2)c2ccccc21` [Compound 4h, Ethyl (E)-2-(3-(2-(4-methoxyphenyl)-2-oxoethylidene)-2-oxoindolin-1-yl)acetate] as the compound, how does the “Nitrite (NO release amount)” value [1] read?
**A.** 20.6 ± 0.6 µM

**Q.** With `CCOC(=O)CN1C(=O)/C(=C/C(C)=O)c2ccccc21` [Compound 4a, Ethyl (E)-2-(2-oxo-3-(2-oxopropylidene)indolin-1-yl)acetate] as the compound, how does the “Nitrite (NO release amount)” value [1] read?
**A.** 22.9 µM and 22.9 ± 0.5 µM

**Q.** Which “Nitrite (NO release amount)” value [1] does the source give for `CCOC(=O)CN1C(=O)/C(=C/C(=O)c2ccc(Br)cc2)c2ccccc21` [Compound 4m, Ethyl (E)-2-(3-(2-(4-bromophenyl)-2-oxoethylidene)-2-oxoindolin-1-yl)acetate] here?
**A.** 18.6 ± 0.3 µM

**Q.** Which “Nitrite (NO release amount)” value [1] does the source give for `CCOC(=O)CN1C(=O)/C(=C/C(=O)c2ccccc2)c2ccccc21` [Compound 4c, Ethyl (E)-2-(2-oxo-3-(2-oxo-2-phenylethylidene)indolin-1-yl)acetate] here?
**A.** 19.3 ± 0.5 µM

**Q.** What does the source list for `CCOC(=O)CN1C(=O)/C(=C/C(=O)c2ccc[nH]2)c2ccccc21` [Compound 4r, Ethyl (E)-2-(2-oxo-3-(2-oxo-2-(1H-pyrrol-2-yl)ethylidene)indolin-1-yl)acetate]?
**A.** Nitrite (NO release amount) [1]: 20.5 ± 0.6 µM; inhibition at 20 µM [1]: 28%

**Q.** For `CCOC(=O)CN1C(=O)/C(=C/C(=O)c2ccc(OCC)cc2)c2ccccc21` [Compound 4i, Ethyl (E)-2-(3-(2-(4-ethoxyphenyl)-2-oxoethylidene)-2-oxoindolin-1-yl)acetate], which “Nitrite (NO release amount)” value [1] is on record?
**A.** 15.3 ± 0.3 µM

**Q.** With `CCOC(=O)CN1C(=O)/C(=C/C(=O)c2cc(OC)c(OC)c(OC)c2)c2cc(OC)ccc21` [Compound 9f, Ethyl (E)-2-(5-methoxy-2-oxo-3-(2-oxo-2-(3,4,5-trimethoxyphenyl)ethylidene)indolin-1-yl)acetate] as the compound, how does the pIC50 [1] read?
**A.** 4.98

**Q.** What about the inhibition at 20 µM [1] of the same compound?
**A.** 68%

**Q.** What about the pIC50 [2] of the same compound?
**A.** 4.11

**Q.** For `CCOC(=O)CN1C(=O)/C(=C/C(=O)c2ccc([N+](=O)[O-])cc2)c2ccccc21` [Compound 4n, Ethyl (E)-2-(3-(2-(4-nitrophenyl)-2-oxoethylidene)-2-oxoindolin-1-yl)acetate], which “Nitrite (NO release amount)” value [1] is on record?
**A.** 16.7 ± 0.3 µM

**Q.** For `CCOC(=O)CN1C(=O)/C(=C/C(=O)c2ccc3ccccc3c2)c2ccccc21` [Compound 4p, Ethyl (E)-2-(3-(2-(naphthalen-2-yl)-2-oxoethylidene)-2-oxoindolin-1-yl)acetate], which “Nitrite (NO release amount)” value [1] is on record?
**A.** 17.0 ± 0.3 µM

**Q.** Which “Nitrite (NO release amount)” value [1] does the source give for `CCOC(=O)CN1C(=O)/C(=C/C(=O)c2ccc(C(C)C)cc2)c2ccccc21` [Compound 4f, Ethyl (E)-2-(3-(2-(4-isopropylphenyl)-2-oxoethylidene)-2-oxoindolin-1-yl)acetate] here?
**A.** 17.1 ± 0.3 µM

**Q.** What about the cell viability [2] of the same compound?
**A.** nearly non-cytotoxic

**Q.** For `CCOC(=O)CN1C(=O)/C(=C/C(=O)c2cc(OC)c(OC)c(OC)c2)c2cc(I)ccc21` [Compound 9d, Ethyl (E)-2-(5-iodo-2-oxo-3-(2-oxo-2-(3,4,5-trimethoxyphenyl)ethylidene)indolin-1-yl)acetate], which inhibition at 20 µM [1] is on record?
**A.** 22%

**Q.** With `CCCCCCCCCCCOC(=O)CN1C(=O)/C(=C/C(=O)c2cc(OC)c(OC)c(OC)c2)c2ccccc21` [Compound 5c, Undecyl (E)-2-(2-oxo-3-(2-oxo-2-(3,4,5-trimethoxyphenyl)ethylidene)indolin-1-yl)acetate] as the compound, how does the pIC50 [1] read?
**A.** 5.20

**Q.** What about the pIC50 [2] of the same compound?
**A.** 4.70

**Q.** Which “Nitrite (NO release amount)” value [1] does the source give for `CCOC(=O)CN1C(=O)/C(=C/C(=O)c2ccc(F)cc2)c2ccccc21` [Compound 4k, Ethyl (E)-2-(3-(2-(4-fluorophenyl)-2-oxoethylidene)-2-oxoindolin-1-yl)acetate] here?
**A.** 15.2 ± 0.2 µM

**Q.** With `COc1cc(C(=O)/C=C2/C(=O)N(CC(=O)OCCc3ccccc3)c3ccccc32)cc(OC)c1OC` [Compound 5f, Phenethyl (E)-2-(2-oxo-3-(2-oxo-2-(3,4,5-trimethoxyphenyl)ethylidene)indolin-1-yl)acetate] as the compound, how does the pIC50 [1] read?
**A.** 4.97

**Q.** What about the pIC50 [2] of the same compound?
**A.** 4.37
